Test results: patent US20260152487A1 (Sitryx Therapeutics Limited, priority 2021, published 2026)
Like-named read-outs stand apart in the source and are kept apart here.

What was measured:
recombinant human PKM2 = biological target: T1, recombinant human PKM2 (Homo sapiens, UniProt P14618); assay: Human PKM2 activation assay (Kinase-Glo Plus luminescent detection of generated ATP); format: biochemical; conditions: for Emax: read-out: hPKM2 Emax; for EC50: read-out: hPKM2 EC50
T1 construct: His (N); purchased R&D Systems
Method in brief: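 Luminescent ATP detection (Kinase-Glo Plus, 15 min, 26 °C) followed a 60 min, 26 °C shaken reaction of compound with […] His-tagged human PKM2, PEP and ADP in imidazole/KCl/MgCl2 buffer with Tween20 and BSA, pH 7.2.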

recombinant human PKLR = biological target: T2, recombinant human PKLR (Homo sapiens, UniProt P30613); assay: Human PKLR activation assay (Kinase-Glo Plus luminescent detection of generated ATP); format: biochemical; conditions: for EC50: read-out: hPKLR EC50; for Emax: read-out: hPKLR Emax (%)
T2 construct: His (N); purchased R&D Systems
Method: Compound activation of recombinant human PKLR pyruvate kinase activity was determined by biochemical assay. N-terminal His-tagged enzyme was sourced from R&D Systems and its substrates phosphoenolpyruvate (PEP) and ADP from Sigma-Aldrich and 2Bscientific Ltd, respectively. The Kinase-Glo® Plus luminescence assay was from Promega. All other reagents were from Sigma-Aldrich. Test Compounds were prepared as 10 mM DMSO stocks and dilution series prepared in DMSO for direct dilution into Assay Buffer comprising 50 mM imidazole, 50 mM KCl, 7 mM MgCl2, 0.01% Tween20, 0.05% BSA (pH 7.2).
Human PKLR was diluted into Assay Buffer to a final concentration of 5 pM. Enzyme-Assay Buffer mix was dispensed into 384-well shallow-well white-walled plates and Test Compounds added by acoustic dispense (Echo®, Labcyte Inc).
After 60 minutes' incubation on an orbital shaker (300 rpm, 26° C.), enzyme activity was quantified by the luminescent detection of generated ATP. Kinase-Glo® Plus reagent was added to each well and the plates incubated for a further 15 minutes on an orbital shaker in the dark (300 rpm, 26° C.) before luminescence measurement on a plate reader (PHERAstar® FSX, BMG Labtech).
Percentage activation was calculated by normalising […] signals to plate LOW (DMSO vehicle) and HIGH (5 μM TEPP-46) controls. EC50 and Emax values were determined from 4-parameter logistic fits of compound concentration-response curves.

[1] = percentage activation normalised to DMSO vehicle (LOW) and 5 μM TEPP-46 (HIGH)
[2] = recombinant human PKM2 activation, 4-parameter logistic fit
[3] = activation of recombinant human PKLR, 4-parameter logistic fit
[4] = percentage activation normalised to DMSO vehicle (LOW) and 5 μM TEPP-46 (HIGH) controls
[5] = data from repeat experiments (*)
[6] = line of the repeat experiment (EC50 marked *)

T1 sequence (P14618 2-531 limits assumed): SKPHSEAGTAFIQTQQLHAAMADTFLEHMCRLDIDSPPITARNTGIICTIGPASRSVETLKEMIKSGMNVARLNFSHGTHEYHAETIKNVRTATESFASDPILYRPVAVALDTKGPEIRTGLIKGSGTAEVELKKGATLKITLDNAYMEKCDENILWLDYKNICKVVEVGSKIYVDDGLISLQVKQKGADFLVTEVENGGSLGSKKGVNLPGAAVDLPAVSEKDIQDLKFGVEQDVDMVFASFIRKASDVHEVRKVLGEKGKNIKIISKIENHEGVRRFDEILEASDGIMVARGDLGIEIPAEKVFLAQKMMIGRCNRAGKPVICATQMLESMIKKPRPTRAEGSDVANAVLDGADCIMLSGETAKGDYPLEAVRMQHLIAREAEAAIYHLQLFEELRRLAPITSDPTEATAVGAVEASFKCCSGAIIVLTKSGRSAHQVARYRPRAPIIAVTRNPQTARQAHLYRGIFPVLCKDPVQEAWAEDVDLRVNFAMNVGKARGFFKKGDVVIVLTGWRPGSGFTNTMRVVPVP
T2 sequence (P30613 whole entry): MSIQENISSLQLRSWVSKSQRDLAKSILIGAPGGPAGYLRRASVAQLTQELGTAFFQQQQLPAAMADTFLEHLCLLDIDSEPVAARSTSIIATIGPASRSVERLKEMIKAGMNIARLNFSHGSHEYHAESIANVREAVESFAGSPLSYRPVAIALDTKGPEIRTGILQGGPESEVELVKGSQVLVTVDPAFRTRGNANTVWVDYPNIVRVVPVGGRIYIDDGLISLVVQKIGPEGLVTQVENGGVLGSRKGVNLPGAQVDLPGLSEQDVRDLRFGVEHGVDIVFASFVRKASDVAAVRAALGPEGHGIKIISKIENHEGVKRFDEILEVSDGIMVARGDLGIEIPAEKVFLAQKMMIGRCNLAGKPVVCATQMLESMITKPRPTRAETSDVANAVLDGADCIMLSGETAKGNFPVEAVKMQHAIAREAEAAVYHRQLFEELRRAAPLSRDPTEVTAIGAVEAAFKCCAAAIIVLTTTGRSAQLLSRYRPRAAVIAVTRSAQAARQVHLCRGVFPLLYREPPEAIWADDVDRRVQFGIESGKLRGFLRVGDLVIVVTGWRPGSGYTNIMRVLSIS

Structure (SMILES) | Emax (recombinant human PKM2; [1]) [%] | EC50 (recombinant human PKM2; [2]) [nM] | EC50 (recombinant human PKLR; [3]) [nM] | Emax (recombinant human PKLR; [4]) [%] | EC50 (recombinant human PKM2; [5]) [nM] | Emax (recombinant human PKM2; [6]) [%] | EC50 (recombinant human PKLR; * data from repeat experiments) [nM] | Emax (recombinant human PKLR; line of the repeat experiments (EC50 marked *)) [%]
O=c1c2ccc(S(=O)(=O)c3ccc4c(c3)NCCO4)cc2cnn1Cc1ccn(CCO)n1 [Example 202, 6-((3,4-dihydro-2H-benzo[b][1,4]oxazin-6-yl)sulfonyl)-2-((1-(2-hydroxyethyl)-1H-pyrazol-3-yl)methyl)phthalazin-1(2H)-one] | 109 | 91.7 | 7.9 | 125 |  |  |  | 
COc1ccc(Cn2ncc3cc(S(=O)(=O)c4ccc(C)cc4)ccc3c2=O)cn1 [Example 150, 2-((6-methoxypyridin-3-yl)methyl)-6-tosylphthalazin-1(2H)-one] | 90.4 | 44.3 | 6.4 | 85.4 |  |  |  | 
COc1ccc(Cn2ncc3cc([S@@](=N)(=O)c4ccc5c(c4)CCO5)ccc3c2=O)cn1 (single isomer, unassigned) [Example 128] | 80.8 | 34.5 | 7.2 | 132 |  |  |  | 
Cc1nc(S(=O)(=O)c2ccc3c(=O)n(Cc4cc[nH]n4)ncc3c2)cs1 [Example 320] | 99.6 | 120 | 14.8 | 131 |  |  |  | 
Cn1ccc(Cn2ncc3cc(S(=O)(=O)c4cnn(C5CC5)c4)ccc3c2=O)n1 [Example 194, 6-(1-cyclopropyl-1H-pyrazol-4-ylsulfonyl)-2-((1-methyl-1H-pyrazol-3-yl)methyl)phthalazin-1(2H)-one] | 113 | 77.4 | 106 | 112 |  |  |  | 
O=c1c2ccc(S(=O)(=O)c3cnn(C4CC4)c3)cc2cnn1Cc1ccn(C2CC2)n1 [Example 196, 2-((1-cyclopropyl-1H-pyrazol-3-yl)methyl)-6-((1-cyclopropyl-1H-pyrazol-4-yl)sulfonyl)phthalazin-1(2H)-one] | 98.9 | 47.6 | 17 | 120 |  |  |  | 
O=c1c2ccc(S(=O)(=O)c3ccc4occc4n3)cc2cnn1Cc1ccn(C2CC2)n1 [Example 256, 2-((1-cyclopropyl-1H-pyrazol-3-yl)methyl)-6-(furo[3,2-b]pyridin-5-ylsulfonyl)phthalazin-1(2H)-one] | 95.5 | 31.7 | 3.33 | 136 |  |  |  | 
COc1ccc(Cn2ncc3cc(S(=O)(=O)c4cnc(OC)cn4)ccc3c2=O)cn1 [Example 177, 6-(5-methoxypyrazin-2-ylsulfonyl)-2-((6-methoxypyridin-3-yl)methyl)phthalazin-1(2H)-one] | 79 | 209 |  |  |  |  |  | 
Cn1cc(S(=O)(=O)c2ccc3c(=O)n(Cc4cccnc4O)ncc3c2)cn1 [Example 200, 2-((2-hydroxypyridin-3-yl)methyl)-6-((1-methyl-1H-pyrazol-4-yl)sulfonyl)phthalazin-1(2H)-one] | 80.2 | 621 |  |  |  |  |  | 
COc1ccc(Cn2ncc3cc(S(=O)(=O)c4ccc5c(c4)OC(F)(F)O5)ccc3c2=O)cn1 [Example 156] | 88.7 | 91 |  |  |  |  |  | 
Cn1ccc(Cn2ncc3cc(S(=O)(=O)c4ccccc4)ncc3c2=O)n1 [Example 248, 3-((1-methyl-1H-pyrazol-3-yl)methyl)-7-(phenylsulfonyl)pyrido[3,4-d]pyridazin-4(3H)-one] | 103 | 113 |  |  |  |  |  | 
N#Cc1c[nH]nc1Cn1ncc2cc(S(=O)(=O)c3ccccc3)ccc2c1=O [Example 18, 3-((1-oxo-6-(phenylsulfonyl)phthalazin-2(1H)-yl)methyl)-1H-pyrazole-4-carbonitrile] | 98.5 | 841 |  |  |  |  |  | 
CCOc1ccc(S(=O)(=O)c2ccc3c(=O)n(Cc4ccn(C)n4)ncc3c2)cc1 [Example 216, 6-((4-ethoxyphenyl)sulfonyl)-2-((1-methyl-1H-pyrazol-3-yl)methyl)phthalazin-1(2H)-one] | 103 | 74.3 |  |  |  |  |  | 
COc1cccc(S(=O)(=O)c2ccc3c(=O)n(Cc4ccc(OC)nc4)ncc3c2)c1 [Example 116, 6-(3-methoxyphenylsulfonyl)-2-((6-methoxypyridin-3-yl)methyl)phthalazin-1(2H)-one] | 96.1 | 59.5 |  |  |  |  |  | 
COC(C)c1nc(S(=O)(=O)c2ccc3c(=O)n(Cc4cc5n(n4)CCO5)ncc3c2)cs1 (stereo not shown) [Example 356] | 95.5 | 53 |  |  |  |  |  | 
COc1ccc(Cn2ncc3cc(S(=O)(=O)c4ccc(OC(F)F)nc4)ccc3c2=O)cn1 [Example 124, 6-((6-(difluoromethoxy)pyridin-3-yl)sulfonyl)-2-((6-methoxypyridin-3-yl)methyl)phthalazin-1(2H)-one] | 107 | 31.3 |  |  |  |  |  | 
COC(C)c1nc(S(=O)(=O)c2ccc3c(=O)n(Cc4cc[nH]n4)ncc3c2)cs1 (stereo not shown) [Example 351] | 103 | 93.9 |  |  |  |  |  | 

Other lines, results leading:

Emax (recombinant human PKM2; [1]) [%] | EC50 (recombinant human PKM2; [2]) [nM] | EC50 (recombinant human PKLR; [3]) [nM] | Emax (recombinant human PKLR; [4]) [%] | EC50 (recombinant human PKM2; [5]) [nM] | Emax (recombinant human PKM2; [6]) [%] | EC50 (recombinant human PKLR; * data from repeat experiments) [nM] | Emax (recombinant human PKLR; line of the repeat experiments (EC50 marked *)) [%] | Structure (SMILES)
105 | 42.8 | 3.4 | 134 |  |  |  |  | O=c1c2ccc(S(=O)(=O)c3ccc4c(c3)NCCO4)cc2cnn1Cc1cc[nH]n1 [Example 221, 2-((1H-pyrazol-3-yl)methyl)-6-((3,4-dihydro-2H-benzo[b][1,4]oxazin-6-yl)sulfonyl)phthalazin-1(2H)-one]
104 | 20.1 | 5.59 | 107 | 21.6 | 105 | 4.32 | 118 | O=c1c2ccc(S(=O)(=O)c3cn[nH]c3)cc2cnn1Cc1ccc2c(n1)CCO2 [Example 253, 6-(1H-pyrazol-4-ylsulfonyl)-2-((2,3-dihydrofuro[3,2-b]pyridin-5-yl)methyl)phthalazin-1(2H)-one]
112 | 18.4 | 2 | 121 |  |  |  |  | O=c1c2ccc(S(=O)(=O)c3ccc4occc4c3)cc2cnn1Cc1cc[nH]n1 [Example 195, 2-((1H-pyrazol-3-yl)methyl)-6-(benzofuran-5-ylsulfonyl)phthalazin-1(2H)-one]
96.7 | 46.1 | 13.1 | 123 |  |  |  |  | Cc1cccc(Cn2ncc3cc(S(=O)(=O)c4cnn(C5CC5)c4)ccc3c2=O)n1 [Example 259, 6-((1-cyclopropyl-1H-pyrazol-4-yl)sulfonyl)-2-((6-methylpyridin-2-yl)methyl)phthalazin-1(2H)-one]
100 | 73.4 | 6.57 | 134 |  |  |  |  | Cc1cc(F)c(Cn2ncc3cc(S(=O)(=O)c4cn[nH]c4)ccc3c2=O)nc1C [Example 321]
114 | 35.3 | 2.4 | 123 |  |  |  |  | O=c1c2ccc(S(=O)(=O)c3ccc4c(c3)CCO4)cc2cnn1Cc1cc[nH]n1 [Example 203, 2-((1H-pyrazol-3-yl)methyl)-6-((2,3-dihydrobenzofuran-5-yl)sulfonyl)phthalazin-1(2H)-one]
116 | 40.4 | 21.2 | 119 | 41.5 | 112 |  |  | O=c1c2ccc(S(=O)(=O)c3cnn(C4CC4)c3)cc2cnn1Cc1cc[nH]n1 [Example 228, 2-((1H-pyrazol-3-yl)methyl)-6-((1-cyclopropyl-1H-pyrazol-4-yl)sulfonyl)phthalazin-1(2H)-one]
103 | 27.9 | 2.9 | 140 |  |  |  |  | Cn1ccc(Cn2ncc3cc(S(=O)(=O)c4ccc5c(c4)NCCO5)ccc3c2=O)n1 [Example 201, 6-((3,4-dihydro-2H-benzo[b][1,4]oxazin-6-yl)sulfonyl)-2-((1-methyl-1H-pyrazol-3-yl)methyl)phthalazin-1(2H)-one]
99.9 | 33.3 | 4.2 | 123 |  |  |  |  | O=c1c2ccc(S(=O)(=O)c3ccc4c(c3)OCCO4)cc2cnn1Cc1cc[nH]n1 [Example 207, 2-((1H-pyrazol-3-yl)methyl)-6-((2,3-dihydrobenzo[b][1,4]dioxin-6-yl)sulfonyl)phthalazine-1(2H)-one]
104 | 84.4 |  |  |  |  |  |  | Cc1nc(Cn2ncc3cc(S(=O)(=O)c4cn[nH]c4)ccc3c2=O)c(F)cc1F [Example 342]
78.6 | 441 |  |  |  |  |  |  | Cn1cc(S(=O)(=O)c2ccc3c(=O)n(Cc4cccc(C5(O)COC5)n4)ncc3c2)cn1 [Example 283, 2-((6-(3-hydroxyoxetan-3-yl)pyridin-2-yl)methyl)-6-((1-methyl-1H-pyrazol-4-yl)sulfonyl)phthalazin-1(2H)-one]
